According to patent publication US20060069132A1, “Azolecarboxamide herbicides” (priority 2004, published 2006):

Assays:
[1] = tested on: morningglory; assay: Test B pre-/postemergence herbicide test; format: in vivo, Ipomoea coccinea
Method in brief: (§1)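 Plants compared with untreated controls 13–15 days post-treatment and given a visual 0–100 injury score. Applications: preemergence to seeds; postemergence at 1- to 4-leaf (2–18 cm); paddy species flooded, 2-leaf stage. Vehicle non-phytotoxic, surfactant included.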

[2] = tested on: cocklebur; assay: Test B pre-/postemergence herbicide test; format: in vivo, Xanthium strumarium; details: for Cocklebur plant response rating: postemergence, visual rating
Method in brief: as §1

[3] = tested on: rice; assay: Test B flooded paddy test; format: in vivo, Oryza sativa; details: 1000 g ai/ha, visual rating, scale 0 to 100 (0 no effect, 100 complete control), 13 to 15 days
Method in brief: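 Paddy species grown to the 2-leaf stage under flooding; blackgrass sprayed postemergence at 2–18 cm (1- to 4-leaf stage). Plants kept in a greenhouse for 13 to 15 days, then visually rated against controls on 0 (no effect) to 100 (complete control).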

[4] = tested on: redroot pigweed; assay: Test A pre-/postemergence herbicide test; format: in vivo, Amaranthus retroflexus
Method in brief: (§2)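 Both application timings were run together: directed soil spray over freshly planted seeds in sandy loam, and runoff spray onto 2–10 cm seedlings. Evaluation after ~10 days in greenhouse used a 0–100 visual scale versus untreated controls.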

[5] = tested on: giant foxtail; assay: Test B pre-/postemergence herbicide test; format: in vivo, Setaria faberi; details: for Foxtail, Giant plant response rating: postemergence, visual rating
Method in brief: (§3)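 Test chemicals in a non-phytotoxic solvent mixture with surfactant were applied preemergence to seeded species and postemergence to plants 2-18 cm tall (1- to 4-leaf stage); rice and barnyardgrass were also tested in a flooded paddy at the 2-leaf stage. Visual rating versus controls after 13-15 days in greenhouse, scale 0 (no effect) to 100 (complete control).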

[6] = tested on: giant foxtail; assay: Test A pre-/postemergence herbicide test; format: in vivo, Setaria faberi
Method in brief: as §2

[7] = tested on: pigweed; assay: Test B pre-/postemergence herbicide test; format: in vivo, Amaranthus retroflexus; details: for Pigweed plant response rating: postemergence, visual rating
Method in brief: as §3

[8] = tested on: ducksalad; assay: Test B flooded paddy test; format: in vivo, Heteranthera limosa; details: 1000 g ai/ha, visual rating, scale 0 to 100 (0 no effect, 100 complete control), 13 to 15 days
Method in brief: (§4)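 Formulated test chemicals went onto postemergence plants measuring 2 to 18 cm, at one to four leaves. For the paddy assay, species had reached two leaves. Scoring took place 13–15 days later by eye, relative to untreated plants, using 0 for no effect up to 100 for full control.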

[9] = tested on: corn; assay: Test B pre-/postemergence herbicide test; format: in vivo, Zea mays
Method in brief: as §3

[10] = tested on: blackgrass; assay: Test B postemergence herbicide test; format: in vivo, Alopecurus myosuroides; details: scale 0 (no effect) to 100 (complete control); for Blackgrass plant response rating: postemergence, visual rating
Method in brief: as §4

[11] = tested on: wheat; assay: Test B postemergence herbicide test; format: in vivo, Triticum aestivum; design: key to Wheat plant response rating: 0 = no effect, 100 = complete control; details: scale 0 (no effect) to 100 (complete control); for Wheat plant response rating: postemergence, visual rating
Method in brief: as §4

[12] = tested on: wild oat; assay: Test B postemergence herbicide test; format: in vivo, Avena fatua; details: scale 0 (no effect) to 100 (complete control); for Oat, Wild plant response rating: postemergence, visual rating
Method in brief: as §4

[13] = tested on: velvetleaf; assay: Test A pre-/postemergence herbicide test; format: in vivo, Abutilon theophrasti
Method in brief: as §2

[14] = tested on: barnyardgrass; assay: Test A pre-/postemergence herbicide test; format: in vivo, Echinochloa crus-galli
Method in brief: as §2

[15] = tested on: lambsquarters; assay: Test B pre-/postemergence herbicide test; format: in vivo, Chenopodium album; details: for Lambsquarters plant response rating: postemergence, visual rating
Method in brief: as §3

[16] = tested on: morningglory; assay: Test A pre-/postemergence herbicide test; format: in vivo, Ipomoea spp.
Method in brief: as §2

[17] = tested on: rice; assay: Test B pre-/postemergence herbicide test; format: in vivo, Oryza sativa; details: preemergence
Method in brief: as §3

[18] = tested on: barnyardgrass; assay: Test B flooded paddy test; format: in vivo, Echinochloa crus-galli; details: 1000 g ai/ha, visual rating, scale 0 to 100 (0 no effect, 100 complete control), 13 to 15 days
Method in brief: as §4

[19] = tested on: large crabgrass; assay: Test A pre-/postemergence herbicide test; format: in vivo, Digitaria sanguinalis
Method in brief: as §2

[20] = tested on: velvetleaf; assay: Test B pre-/postemergence herbicide test; format: in vivo, Abutilon theophrasti; details: for Velvetleaf plant response rating: postemergence, visual rating
Method in brief: as §3

[21] = tested on: small flower umbrella sedge; assay: Test B flooded paddy test; format: in vivo, Cyperus difformis; details: 1000 g ai/ha, visual rating, scale 0 to 100 (0 no effect, 100 complete control), 13 to 15 days
Method in brief: as §4

[22] = tested on: barnyardgrass; assay: Test B pre-/postemergence herbicide test; format: in vivo, Echinochloa crus-galli; details: for Barnyardgrass plant response rating: postemergence, visual rating
Method in brief: as §1

[23] = tested on: large crabgrass; assay: Test B pre-/postemergence herbicide test; format: in vivo, Digitaria sanguinalis; details: for Crabgrass, Large plant response rating: postemergence, visual rating
Method in brief: as §3

[24] = tested on: Surinam grass; assay: Test B pre-/postemergence herbicide test; format: in vivo, Urochloa decumbens; details: for Surinam Grass plant response rating: postemergence, visual rating
Method in brief: as §3

[25] = 500 g ai/ha, visual rating 0-100, 0 no effect, 100 complete control, preemergence
[26] = Postemergence, 500 g ai/ha, visual rating after 13 to 15 days, scale 0 (no effect) to 100 (complete control)
[27] = postemergence, 125 g ai/ha, visual rating, scale 0 (no effect) to 100 (complete control)
[28] = preemergence, 125 g ai/ha, 0 to 100 scale, 0 is no effect, 100 is complete control
[29] = 125 g ai/ha, scale 0 (no effect) to 100 (complete control)
[30] = Postemergence, 500 g ai/ha, 0 to 100 scale, 0 no effect, 100 complete control
[31] = Postemergence, 2000 g ai/ha, 0 to 100 scale, 0 no effect, 100 complete control
[32] = Preemergence, 500 g ai/ha, visual rating, 0 to 100 scale (0 no effect, 100 complete control)
[33] = Preemergence, 2000 g ai/ha, visual rating, 0 to 100 scale (0 no effect, 100 complete control)
[34] = Postemergence, 500 g ai/ha, visual rating after 13 to 15 days
[35] = 125 g ai/ha, 0 to 100 scale, 0 is no effect, 100 is complete control
[36] = 500 g ai/ha, scale 0 (no effect) to 100 (complete control)
[37] = preemergence, 500 g ai/ha, visual injury, 0 to 100 scale (0 no effect, 100 complete control)

CCn1nc(C(C)(C)C)cc1C(=O)Nc1cccc(C(=O)OC(C)(C)C)c1 [Compound 98]
30: Plant response rating, Pigweed [7, 26] | Plant response rating, Lambsquarters [15, 26]
0: Plant response rating, Morningglory [1, 25] | Morningglory plant response rating [1, 27] | Plant response rating, Morningglory [1, 28] | Plant response rating, Cocklebur [2, 25] | Cocklebur plant response rating [2, 29] | Plant response rating, Cocklebur [2, 28] | Rice plant response rating [3] | Pigweed plant response rating [4, 32] | Pigweed plant response rating [4, 33] | Plant response rating, Foxtail, Giant [5, 25] | Plant response rating, Foxtail, Giant [5, 28] | Foxtail, Giant plant response rating [6, 30] | Plant response rating, Foxtail, Giant [6, 31] | Foxtail, Giant plant response rating [6, 32] | Foxtail, Giant plant response rating [6, 33] | Plant response rating, Pigweed [7, 25] | Plant response rating, Pigweed [7, 28] | Ducksalad plant response rating [8] | Plant response rating, Corn [9, 25] | Plant response rating, Corn [9, 28] | Plant response rating, Blackgrass [10, 34] | Blackgrass plant response rating ([10]; 125 g ai/ha) | Plant response rating, Wheat [11, 34] | Wheat plant response rating ([11]; 125 g ai/ha) | Oat, Wild plant response rating ([12]; 125 g ai/ha) | Velvetleaf plant response rating [13, 30] | Velvetleaf plant response rating [13, 32] | Velvetleaf plant response rating [13, 33] | Barnyardgrass plant response rating [14, 30] | Plant response rating, Barnyardgrass [14, 31] | Barnyardgrass plant response rating [14, 32] | Barnyardgrass plant response rating [14, 33] | Plant response rating, Lambsquarters [15, 25] | Plant response rating, Lambsquarters [15, 28] | Morningglory plant response rating [16, 30] | Plant response rating, Morningglory [16, 31] | Morningglory plant response rating [16, 32] | Morningglory plant response rating [16, 33] | Plant response rating, Rice ([17]; 500 g ai/ha, visual rating 0-100, 0 no effect, 100 complete control) | Plant response rating, Rice [17, 35] | Barnyardgrass plant response rating [18] | Crabgrass, Large plant response rating [19, 30] | Plant response rating, Crabgrass, Large [19, 31] | Crabgrass, Large plant response rating [19, 32] | Crabgrass, Large plant response rating [19, 33] | Plant response rating, Velvetleaf [20, 25] | Plant response rating, Velvetleaf [20, 28] | Sedge, Umbrella plant response rating [21] | Plant response rating, Barnyardgrass [22, 25] | Plant response rating, Barnyardgrass [22, 28] | Plant response rating, Crabgrass, Large [23, 25] | Plant response rating, Crabgrass, Large [23, 28] | Plant response rating, Surinam Grass [24, 25] | Plant response rating, Surinam Grass [24, 28]
5: Pigweed plant response rating [4, 30] | Plant response rating, Velvetleaf [13, 31]
10: Plant response rating, Pigweed [4, 31] | Plant response rating, Foxtail, Giant [5, 26] | Foxtail, Giant plant response rating [5, 29] | Pigweed plant response rating [7, 29] | Plant response rating, Corn [9, 26] | Corn plant response rating [9, 27] | Plant response rating, Oat, Wild [12, 34] | Plant response rating, Velvetleaf [20, 26] | Velvetleaf plant response rating [20, 29] | Plant response rating, Barnyardgrass [22, 26] | Barnyardgrass plant response rating [22, 29] | Surinam Grass plant response rating [24, 29]
20: Plant response rating, Morningglory [1, 26] | Plant response rating, Cocklebur [2, 26] | Lambsquarters plant response rating [15, 29] | Plant response rating, Crabgrass, Large [23, 26] | Crabgrass, Large plant response rating [23, 29] | Plant response rating, Surinam Grass [24, 26]

CCC(C)c1cc(C(=O)Nc2cccc(C(C)=NO)c2)n(C)n1 (centres unmarked) [Compound 120]
30: Cocklebur plant response rating [2, 29] | Plant response rating, Pigweed [7, 25] | Plant response rating, Velvetleaf [13, 31] | Barnyardgrass plant response rating [14, 32] | Barnyardgrass plant response rating [18] | Velvetleaf plant response rating [20, 36]
70: Plant response rating, Foxtail, Giant [5, 25] | Pigweed plant response rating [7, 36] | Ducksalad plant response rating [8] | Plant response rating, Crabgrass, Large [23, 28]
90: Plant response rating, Barnyardgrass [22, 25] | Plant response rating, Crabgrass, Large [23, 25]
75: Crabgrass, Large plant response rating [19, 33]
45: Barnyardgrass plant response rating [14, 30] | Crabgrass, Large plant response rating [19, 32]
20: Pigweed plant response rating [4, 37] | Foxtail, Giant plant response rating [6, 30] | Plant response rating, Foxtail, Giant [6, 31] | Velvetleaf plant response rating [13, 37] | Plant response rating, Lambsquarters [15, 25] | Morningglory plant response rating [16, 30] | Morningglory plant response rating [16, 32] | Plant response rating, Velvetleaf [20, 28] | Crabgrass, Large plant response rating [23, 36] | Surinam Grass plant response rating [24, 29]
25: Foxtail, Giant plant response rating [6, 32] | Velvetleaf plant response rating [13, 30]
50: Pigweed plant response rating [4, 30] | Pigweed plant response rating [4, 33] | Lambsquarters plant response rating [15, 36] | Crabgrass, Large plant response rating [19, 30] | Surinam Grass plant response rating [24, 36]
0: Plant response rating, Cocklebur [2, 25] | Plant response rating, Cocklebur [2, 28] | Rice plant response rating [3] | Plant response rating, Foxtail, Giant [5, 28] | Plant response rating, Pigweed [7, 28] | Plant response rating, Corn [9, 25] | Plant response rating, Corn [9, 28] | Blackgrass plant response rating ([10]; 125 g ai/ha) | Lambsquarters plant response rating [15, 29] | Plant response rating, Lambsquarters [15, 28] | Plant response rating, Rice [17, 35] | Plant response rating, Barnyardgrass [22, 28] | Plant response rating, Surinam Grass [24, 25] | Plant response rating, Surinam Grass [24, 28]
10: Plant response rating, Morningglory [1, 28] | Foxtail, Giant plant response rating [5, 29] | Foxtail, Giant plant response rating [5, 36] | Pigweed plant response rating [7, 29] | Blackgrass plant response rating ([10]; 500 g ai/ha) | Wheat plant response rating ([11]; 125 g ai/ha) | Wheat plant response rating ([11]; 500 g ai/ha) | Oat, Wild plant response rating ([12]; 125 g ai/ha) | Oat, Wild plant response rating ([12]; 500 g ai/ha) | Velvetleaf plant response rating [20, 29] | Sedge, Umbrella plant response rating [21] | Barnyardgrass plant response rating [22, 29] | Barnyardgrass plant response rating [22, 36] | Crabgrass, Large plant response rating [23, 29]
85: Plant response rating, Pigweed [4, 31] | Barnyardgrass plant response rating [14, 33]
65: Plant response rating, Barnyardgrass [14, 31] | Plant response rating, Crabgrass, Large [19, 31]
55: Foxtail, Giant plant response rating [6, 33] | Morningglory plant response rating [16, 33]
40: Velvetleaf plant response rating [13, 33] | Plant response rating, Morningglory [16, 31] | Plant response rating, Velvetleaf [20, 25]
60: Cocklebur plant response rating [2, 36]
